{"source": "patent US8981094B2", "about": "“Piperidine/piperazine derivatives” (Janssen Pharmaceutica N.V., priority 2007, dated 2015)"}
{"target": "T1, human DGAT1 (Homo sapiens, UniProt O75907)", "T1 construct": "FLAG (N); made in house; host or cells: SF9 insect cells (pFastBac baculovirus); total cell membranes", "T1 sequence (O75907 1-488)": "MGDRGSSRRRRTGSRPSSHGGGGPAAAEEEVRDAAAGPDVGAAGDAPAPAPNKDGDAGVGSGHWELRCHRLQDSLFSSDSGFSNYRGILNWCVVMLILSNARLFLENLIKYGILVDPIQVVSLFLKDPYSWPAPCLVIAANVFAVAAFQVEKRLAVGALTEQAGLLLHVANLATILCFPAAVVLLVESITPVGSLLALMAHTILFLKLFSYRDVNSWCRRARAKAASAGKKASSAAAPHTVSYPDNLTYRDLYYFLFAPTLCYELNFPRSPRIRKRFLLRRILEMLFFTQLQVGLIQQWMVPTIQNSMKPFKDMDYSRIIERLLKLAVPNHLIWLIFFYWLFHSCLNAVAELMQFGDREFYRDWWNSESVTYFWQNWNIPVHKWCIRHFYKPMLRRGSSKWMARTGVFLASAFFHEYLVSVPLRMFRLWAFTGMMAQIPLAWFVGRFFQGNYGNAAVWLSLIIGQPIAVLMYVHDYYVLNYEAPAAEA", "experiment": "Inhibition of DGAT1 activity, FlashPlate assay with DGAT1 membrane preparations and substrate micelles", "type": "biochemical", "details": "pIC50 = -logIC50, IC50 values expressed in M", "source_text": "A) Measurement of Inhibition of DGAT1 Activity by the Present Compounds\nThe inhibiting activity of the present compounds on DGAT1 activity was screened in a single well procedure assay using DGAT1 comprising membrane preparations and DGAT1 substrate comprising micelles and determining formed radio-active triacylglycerol coming in close proximity of a flashplate surface by radio luminescence.\nSaid assay is described in full detail in WO2006/067071, the content of which is incorporated herein by reference.\nBy DGAT1 activity is meant the transfer of coenzyme A activated fatty acids to the 3-position of 1,2-diacylglycerols, thus forming a triglyceride molecule, by enzyme DGAT1.\nhuman DGAT1 (NM012079.2) was cloned into the pFastBac vector, containing translation start, a FLAG-tag at the N-terminus as described in literature and a viral Kozak sequence (AAX) preceding the ATG to improve expression in insect cells. Expression was done as described in literature (Cases, S., Smith, S. J., Zheng, Y., Myers H. M., Lear, S. R., Sande, E., Novak, S., Collins, C., Welch, C. B., Lusis, A. J., Erickson, S. K. and Farese, R. V. (1998) Proc. Natl. Acad. Sci. USA 95, 13018-13023.) using SF9 cells.\n72 h transfected SF9 cells were collected by centrifugation (13000 rpm-15 min-4° C.) and lysed in 2×500 ml lysisbuffer (0.1M Sucrose, 50 mM KCl, 40 mM KH2PO4, 30 mM EDTA pH 7.2. Cells were homogenized by cell disruptor. After centrifugation 1380 rpm-15 min-4° C. (SN discarded), pellet was resuspended in 500 ml lysisbuffer and total cell membranes collected by ultracentrifugation at 34000 rpm(100 000 g) for 60 min (4° C.). The collected membranes were resuspended in lysis buffer, divided in aliquots and stored with 10% glycerol at −80° C. until use.\nAdd 1 ml dioleoyl-sn-glycerol (10 mg/ml) to 10 ml of L-α-phosphatidylcholine (1 mg/ml) and 10 ml of L-α-phosphatidyl-L-serine (1 mg/ml) in a thick glass recipient. Evaporate under nitrogen and put on ice for 15 minutes. Reconstitute in 10 ml Tris/HCl (10 mM, pH 7.4) by sonication on ice. The sonification process consists of sonification cycles of 10 seconds in the sonification bath followed by 10 seconds cool down on ice and repeating this sonification cycle till a homogeneous solution is obtained (takes about 15 minutes). The thus obtained micelles are stored at −20° C. till later use and contain DAG at a final concentration of 1.61 mM.\nc) Substrate mix (for 1 384 well plate=3840 μl) • 612 μl micelles stock (51 μM final) • 16.6 μl oleoylCoA 9.7 mM • 23 μl [^3H]-oleoylCoA (49 Ci/mmol, 500 μCi/ml) • 3188.4 μl Tris pH 7.4, 10 mM\nd) Enzyme mix (for 1 384 well plate=3520 μl) (5 μg/ml) • Add 11.73 μl of DGAT membrane stock (1500 μg/ml stock) to 3508 μl assay buffer.\ne) Stop mix (for 1 384 well plate=7.68 ml) (250 mM) • Add 384 μl of N-ethylmaleimide (5M) to 3.456 ml DMSO 100%, and further dilute 3.84 ml of said solution with 3.84 ml DMSO 10%.\nDGAT activity in membrane preparations was assayed in 50 mM Tris-HCl (pH 7.4), 150 mM MgCl2, 1 mM EDTA and 0.2% BSA, containing 50 μM DAG, 32 μg/ml PC/PS and 8.4 μM [^3H]-oleoylCoA (at a specific activity of 30 nCi/well) in a final volume of 50 μl in 384-well format using the red shifted Basic Image FlashPlate™ (Perkin Elmer Cat.No. SMP400).\nIn detail, 10 μl enzyme mix and 10 μl substrate mix were added to 30 μl of assay buffer, optionally in the presence of 1 μl DMSO (blank and controls) or 1 μl of the compound to be tested. This reaction mixture was incubated for 120 minutes at 37° C. and the enzymatic reaction stopped by adding 20 μl of the stop mix. The plates were sealed and the vesicles allowed to settle overnight at room temperature. Plates were centrifuged for 5 minutes at 1500 rpm and measured in Leadseeker. […]", "units": {"IC50": "nM"}}
{"smiles": "O=C(CNCc1ccccc1)Nc1ccc(C2CCN(C(=O)Nc3c(Cl)cccc3Cl)CC2)cc1", "note": "[Compound 117]", "IC50": 214}
{"smiles": "O=C(CNCc1ccc(F)cc1)Nc1ccc(C2CCN(C(=O)Nc3c(Cl)cccc3Cl)CC2)cc1", "note": "[Compound 118]", "IC50": 347}
{"smiles": "O=C(CNCc1ccco1)Nc1ccc(C2CCN(C(=O)Nc3c(Cl)cccc3Cl)CC2)cc1", "note": "[Compound 119]", "IC50": 389}
{"smiles": "N#CCCNCC(=O)Nc1ccc(C2CCN(C(=O)Nc3c(Cl)cccc3Cl)CC2)cc1", "note": "[Compound 121]", "IC50": 3800}
{"smiles": "CCCNCC(=O)Nc1ccc(C2CCN(C(=O)Nc3c(Cl)cccc3Cl)CC2)cc1", "note": "[Compound 122]", "IC50": 562}
{"smiles": "O=C(Cn1ccnc1)Nc1ccc(C2CCN(C(=O)Nc3c(Cl)cccc3Cl)CC2)cc1", "note": "[Compound 123]", "IC50": 871}
{"smiles": "O=C(CC1CCCCC1)Nc1ccc(C2CCN(C(=O)Nc3c(Cl)cccc3Cl)CC2)cc1", "note": "[Compound 124]", "IC50": 166}
{"smiles": "O=C(CCN1CCOCC1)Nc1ccc(C2CCN(C(=O)Nc3c(Cl)cccc3Cl)CC2)cc1", "note": "[Compound 125]", "IC50": 646}
{"smiles": "COC(=O)CCCC(=O)Nc1ccc(C2CCN(C(=O)Nc3c(Cl)cccc3Cl)CC2)cc1", "note": "[Compound 126]", "IC50": 67.6}
{"smiles": "O=C(CCN1CCCCC1)Nc1ccc(C2CCN(C(=O)Nc3c(Cl)cccc3Cl)CC2)cc1", "note": "[Compound 128]", "IC50": 2090}
{"smiles": "C#CCCC(=O)Nc1ccc(C2CCN(C(=O)Nc3c(Cl)cccc3Cl)CC2)cc1", "note": "[Compound 129]", "IC50": 245}
{"smiles": "CCCCC(=O)Nc1ccc(C2CCN(C(=O)Nc3c(Cl)cccc3Cl)CC2)cc1", "note": "[Compound 130]", "IC50": 38}
{"smiles": "O=C(CCc1ccccc1)Nc1ccc(C2CCN(C(=O)Nc3c(Cl)cccc3Cl)CC2)cc1", "note": "[Compound 131]", "IC50": 25.7}
{"smiles": "O=C(Cc1ccsc1)Nc1ccc(C2CCN(C(=O)Nc3c(Cl)cccc3Cl)CC2)cc1", "note": "[Compound 132]", "IC50": 44.7}
{"smiles": "O=C(CCc1ccco1)Nc1ccc(C2CCN(C(=O)Nc3c(Cl)cccc3Cl)CC2)cc1", "note": "[Compound 133]", "IC50": 38}
{"smiles": "COc1ccc(CC(=O)Nc2ccc(C3CCN(C(=O)Nc4c(Cl)cccc4Cl)CC3)cc2)cc1", "note": "[Compound 134]", "IC50": 15.5}
{"smiles": "O=C(CCN1CCOCC1)Nc1ccc(N2CCN(C(=O)Nc3c(Cl)cccc3Cl)CC2)cc1", "note": "[Compound 136]", "IC50": 389}
{"smiles": "CN(C)C(=O)CCC(=O)Nc1ccc(N2CCN(C(=O)Nc3c(Cl)cccc3Cl)CC2)cc1", "note": "[Compound 137]", "IC50": 3390}
{"smiles": "C#CCCC(=O)Nc1ccc(N2CCN(C(=O)Nc3c(Cl)cccc3Cl)CC2)cc1", "note": "[Compound 139]", "IC50": 120}
{"smiles": "CCCCC(=O)Nc1ccc(N2CCN(C(=O)Nc3c(Cl)cccc3Cl)CC2)cc1", "note": "[Compound 140]", "IC50": 19.1}
{"smiles": "O=C(Cc1ccsc1)Nc1ccc(N2CCN(C(=O)Nc3c(Cl)cccc3Cl)CC2)cc1", "note": "[Compound 142]", "IC50": 13.8}
{"smiles": "O=C(CCc1ccco1)Nc1ccc(N2CCN(C(=O)Nc3c(Cl)cccc3Cl)CC2)cc1", "note": "[Compound 143]", "IC50": 18.2}
{"smiles": "COc1ccc(CC(=O)Nc2ccc(N3CCN(C(=O)Nc4c(Cl)cccc4Cl)CC3)cc2)cc1", "note": "[Compound 144]", "IC50": 5.75}
{"smiles": "COC(=O)CCCC(=O)Nc1ccc(N2CCN(C(=O)Nc3c(Cl)cccc3Cl)CC2)cc1", "note": "[Compound 145]", "IC50": 55}
{"smiles": "C=CCC(N)C(=O)Nc1ccc(C2CCN(C(=O)Nc3c(Cl)cccc3Cl)CC2)cc1", "note": "(stereo not drawn) [Compound 146]", "IC50": 10500}
{"smiles": "CC(N)C(=O)Nc1ccc(C2CCN(C(=O)Nc3c(Cl)cccc3Cl)CC2)cc1", "note": "(stereo not drawn) [Compound 148]", "IC50": 7080}
{"smiles": "O=C(CC1CCCN1)Nc1ccc(C2CCN(C(=O)Nc3c(Cl)cccc3Cl)CC2)cc1", "note": "(stereo not drawn) [Compound 149]", "IC50": 7240}
{"smiles": "NCCC(=O)Nc1ccc(C2CCN(C(=O)Nc3c(Cl)cccc3Cl)CC2)cc1", "note": "[Compound 150]", "IC50": 6920}
{"smiles": "CCC(N)C(=O)Nc1ccc(C2CCN(C(=O)Nc3c(Cl)cccc3Cl)CC2)cc1", "note": "(stereo not drawn) [Compound 151]", "IC50": 6920}
{"smiles": "O=C(CC(c1ccc(Cl)cc1)c1ccc(Cl)cc1)c1ccc(N2CCN(C(=O)Nc3c(Cl)cccc3Cl)CC2)cc1", "note": "[Compound 162]", "IC50": 112}
{"smiles": "COCCOCC(=O)N(C)CC(=O)Nc1ccc(N2CCN(C(=O)Nc3c(Cl)cccc3Cl)CC2)cc1", "note": "[Compound 163]", "IC50": 1410}
{"smiles": "CN(CC(=O)Nc1ccc(N2CCN(C(=O)Nc3c(Cl)cccc3Cl)CC2)cc1)C(=O)CC(C)(C)C", "note": "[Compound 167]", "IC50": 22.4}
{"smiles": "CC(C)CC(=O)N(C)CC(=O)Nc1ccc(N2CCN(C(=O)Nc3c(Cl)cccc3Cl)CC2)cc1", "note": "[Compound 168]", "IC50": 30.9}
{"smiles": "CCCC(=O)N(C)CC(=O)Nc1ccc(N2CCN(C(=O)Nc3c(Cl)cccc3Cl)CC2)cc1", "note": "[Compound 169]", "IC50": 53.7}
{"smiles": "CCC(=O)N(C)CC(=O)Nc1ccc(N2CCN(C(=O)Nc3c(Cl)cccc3Cl)CC2)cc1", "note": "[Compound 170]", "IC50": 245}
{"smiles": "COc1cc(Cl)c(NC(=O)N2CCN(c3ccc(NC(=O)CCCc4ccccc4)cc3)CC2)c(Cl)c1", "note": "[Compound 190]", "IC50": 6.17}
{"smiles": "COc1ccc(CC(=O)Nc2ccc(N3CCN(C(=O)Nc4c(Cl)cc(OC)cc4OC)CC3)cc2)cc1", "note": "[Compound 191]", "IC50": 44.7}
{"smiles": "O=C(CCCc1ccccn1)Nc1ccc(N2CCN(C(=O)Nc3c(Cl)cccc3Cl)CC2)cc1", "note": "[Compound 195]", "IC50": 123}
{"smiles": "CC(C)(C)OC(=O)NC(CO)C(=O)Nc1ccc(C2CCN(C(=O)Nc3c(Cl)cccc3Cl)CC2)cc1", "note": "(stereo not drawn) [Compound 204]", "IC50": 1910}
{"smiles": "CCC(NC(=O)OC(C)(C)C)C(=O)Nc1ccc(C2CCN(C(=O)Nc3c(Cl)cccc3Cl)CC2)cc1", "note": "(stereo not drawn) [Compound 205]", "IC50": 398}
{"smiles": "CC(NC(=O)OC(C)(C)C)C(=O)Nc1ccc(C2CCN(C(=O)Nc3c(Cl)cccc3Cl)CC2)cc1", "note": "(stereo not drawn) [Compound 206]", "IC50": 269}
{"smiles": "C=CCC(NC(=O)OC(C)(C)C)C(=O)Nc1ccc(C2CCN(C(=O)Nc3c(Cl)cccc3Cl)CC2)cc1", "note": "(stereo not drawn) [Compound 207]", "IC50": 209}
{"smiles": "CC(C)C(NC(=O)OC(C)(C)C)C(=O)Nc1ccc(C2CCN(C(=O)Nc3c(Cl)cccc3Cl)CC2)cc1", "note": "(stereo not drawn) [Compound 208]", "IC50": 191}
{"smiles": "COCC(NC(=O)OC(C)(C)C)C(=O)Nc1ccc(C2CCN(C(=O)Nc3c(Cl)cccc3Cl)CC2)cc1", "note": "(stereo not drawn) [Compound 209]", "IC50": 166}
{"smiles": "CSCC(NC(=O)OC(C)(C)C)C(=O)Nc1ccc(C2CCN(C(=O)Nc3c(Cl)cccc3Cl)CC2)cc1", "note": "(stereo not drawn) [Compound 210]", "IC50": 155}
{"smiles": "CC(C)(C)OC(=O)NC(CC#N)C(=O)Nc1ccc(C2CCN(C(=O)Nc3c(Cl)cccc3Cl)CC2)cc1", "note": "(stereo not drawn) [Compound 211]", "IC50": 126}
{"smiles": "CC(C)(C)OC(=O)NCC(=O)Nc1ccc(C2CCN(C(=O)Nc3c(Cl)cccc3Cl)CC2)cc1", "note": "[Compound 212]", "IC50": 115}
{"smiles": "CCC(C)C(NC(=O)OC(C)(C)C)C(=O)Nc1ccc(C2CCN(C(=O)Nc3c(Cl)cccc3Cl)CC2)cc1", "note": "(stereo not drawn) [Compound 213]", "IC50": 107}
